From patent US6423749B1, “Pharmaceutical composition for injection based on paracetamol” (Aziende Chimiche Riunite Angelini Francesco A.C.R.A.F. …, priority 1998, dated 2002)

Assays:
[1] = cited from earlier work
[2] = Solubility of paracetamol, HPLC analysis of supernatant after centrifugation; assay type: physicochemical; conditions: stirred 2 hours at room temperature
Description: The PEG400 was added to the paracetamol at room temperature. This mixture was then kept stirring at room temperature for 2 hours.
4 ml of the above-mentioned suspension were centrifuged in an Eppendorf tube at 25° C. for 30 minutes at a speed of 7,000 rpm.
The absolute ethanol was added to the paracetamol at room temperature. This mixture was then kept stirring at room temperature for 2 hours.
4 ml of the above-mentioned suspension were centrifuged in an Eppendorf tube at 4° C. for 40 minutes at a speed of 7,000 rpm.

- solubility of the paracetamol ([2]; in PEG-400, centrifuged at 25° C. for 30 minutes): 18-19%
- solubility of the paracetamol ([2]; in absolute ethanol, centrifuged at 4° C. for 40 minutes): 9-10%
SMILES: CC(=O)Nc1ccc(O)cc1 [paracetamol]
- amount of paracetamol dissolved ([1]; 30% propylene glycol, 40% PEG400 and 30% water, 20° C., WO 98/05314): about 200 mg/ml
- solubility in water ([1]; water, The Merck Index, 12th edition): very slightly soluble
